Reference: patent US9757408B2 (Hayashibara Co., Ltd., priority 2010, dated 2017)
Like-named read-outs stand apart in the source and are kept apart here. One block for each molecule: values may come before it.

Legend:
[1] = test system: IL-6 production from mouse intraperitoneal macrophages; assay: IC50 for IL-6 production from mouse macrophages, LPS + IFN-γ (Experiment 19); assay type: cell-based; conditions: for IC50 Concentration IL-6 / IC50: mouse macrophages, LPS and IFN-γ, 20 hours; for IC50: read-out: IC50 Concentration IL-6; for inhibition of the production of IL-6 (in words): mouse intraperitoneal macrophages stimulated with LPS and IFN-γ
Source text: (§1) After completion of the culture, the supernatant in each well was collected and assayed for cytokines and prostaglandin E2 (called “PGE2”, hereinafter) with ELISA.

[2] = test system: TNF-α production from mouse intraperitoneal macrophages; assay: IC50 for TNF-α production from mouse macrophages, LPS + IFN-γ, nucleic acid derivatives (Experiment 19); assay type: cell-based; conditions: for IC50 / IC50 Concentration TNF-α: mouse macrophages, LPS and IFN-γ, 20 hours; for IC50: read-out: IC50 Concentration TNF-α; for inhibitory action on the production of inflammatory cytokines (in words): mouse intraperitoneal macrophages stimulated with LPS and IFN-γ
Source text: as §1

[3] = test system: IL-12 production from mouse intraperitoneal macrophages; assay: IC50 for IL-12 production from mouse macrophages, LPS + IFN-γ (Experiment 19); assay type: cell-based; conditions: mouse macrophages, LPS and IFN-γ, 20 hours; read-out: IC50 Concentration IL-12
Source text: as §1

[4] = test system: PGE2 production from mouse intraperitoneal macrophages; assay: IC50 for PGE2 production from mouse macrophages, LPS + IFN-γ (Experiment 19); assay type: cell-based; conditions: mouse macrophages, LPS and IFN-γ, 20 hours; read-out: IC50 Concentration PGE2
Source text: as §1

BALB/c mice [5] = assay: Acute toxicity test, intraperitoneal (Experiment 20); conditions: BALB/c mice, intraperitoneal
Protocol: As a control, only PBS was intraperitoneally administered to 10 BALB/c mice (6-week-old, female, average weight of 20 g, commercialized by Charles River Laboratories Japan Inc., Tokyo, Japan) at a dose of 1 mL/head, followed by observing the course of the mice for 24 hours.

BALB/c mice [6] = assay: Safeness of injection preparations, i.v. once a day for seven days (Example 2); assay type: in vivo; conditions: BALB/c mice
Protocol: The safeness of the preparations prepared in the above was evaluated.

IC50 Concentration IL-6 [1]: Enhanced | IC50 [2]: > 200 µM
SMILES: Nc1nc2c([nH]c(=O)n2[C@H]2C[C@H](O)[C@@H](CO)O2)c(=O)[nH]1 [8-OH-deoxyguanine]

IC50 Concentration IL-6 [1]: Enhanced | IC50 [2]: > 200 µM
SMILES: Nc1nc2c(nc(O)n2[C@@H]2O[C@H](CO)[C@@H](O)[C@H]2O)c(=O)[nH]1 [8-OH-guanosine]

IC50 Concentration IL-6 [1]: Not inhibited | IC50 Concentration TNF-α [2]: Not inhibited
SMILES: Nc1nc2c(ncn2[C@@H]2O[C@H](COP(=O)(O)O)[C@@H](O)[C@H]2O)c(=O)[nH]1 [guanosine 5′-monophosphate]

IC50 Concentration IL-6 [1]: Not inhibited | IC50 Concentration TNF-α [2]: Not inhibited
SMILES: Nc1nc2c(ncn2[C@@H]2O[C@H](CO)[C@@H](O)[C@H]2O)c(=O)[nH]1 [guanosine]

Second part, the molecule before the results:

SMILES: CC1(C)[C@@H](O)CC[C@]2(C)[C@H]3C(=O)C=C4[C@@H]5C[C@@](C)(C(=O)O)CC[C@]5(C)CC[C@@]4(C)[C@]3(C)CC[C@@H]12 [18β-glycyrrhetinate]
IC50 [3]: > 200 µM | IC50 [4]: > 200 µM | IC50 [1]: 87.3 µM | IC50 [2]: 50.2 µM

SMILES: CNC(=O)[C@H]1O[C@@H](n2cnc3c(NCc4cccc(I)c4)ncnc32)[C@H](O)[C@@H]1O [IB-MECA, 1-deoxy-1-[6-[[(3-iodophenyl-)methyl]amino]-9H-purin-9-yl]-N-methyl-β-D-ribofuranuronamide]
IC50 [3]: 4.5 µM | inhibition of the production of IL-6 (in words) [1]: no inhibition | IC50 Concentration IL-6 [1]: Not inhibited | IC50 [2]: 0.4 µM

SMILES: Nc1c2[nH]cnc2nc[n+]1[O-] [adenine N1-oxide]
IC50 ([1]; Macrophage): > 200 µM | IC50 ([2]; Macrophage): 137 µM | inhibitory action on the production of inflammatory cytokines (in words) [2]: only a weak inhibitory action

SMILES: Nc1ncnc2nc[nH]c12 [adenine]
IC50 ([1]; Macrophage): > 200 µM | IC50 ([2]; Macrophage): 85.2 µM | inhibitory action on the production of inflammatory cytokines (in words) [2]: only a weak inhibitory action

SMILES: Nc1ncnc2c1ncn2[C@@H]1O[C@H](COP(=O)(O)O)[C@@H](O)[C@H]1O [adenosine 5′-monophosphate]
IC50 Concentration IL-6 [1]: Not inhibited | IC50 ([2]; Macrophage): 32.1 µM | inhibitory action on the production of inflammatory cytokines (in words) [2]: only a weak inhibitory action

SMILES: Nc1c2ncn([C@@H]3O[C@H](COP(=O)(O)O)[C@@H](O)[C@H]3O)c2nc[n+]1[O-] [adenosine N1-oxide 5′-monophosphate]
IC50 [3]: > 200 µM | clinical laboratory test results that provide indices of renal and liver functions, versus control (BALB/c mice [5]; blood and urine at 24 hours): no difference | change in appearance after administration (BALB/c mice [5]; observed 24 hours): no change in appearance | inhibition of the production of IL-6 (in words) [1]: strongly inhibited | IC50 [1]: 10.2 µM | IC50 [2]: 0.9 µM | change in body weight and other appearance versus PBS (BALB/c mice [6]; i.v. 0.3 mL/head once a day for seven days, followed two weeks): no significant change | clinical laboratory test results that provide indices of renal and liver functions versus PBS (BALB/c mice [6]; i.v. once a day for seven days, two weeks after initiating): no difference

SMILES: CC1(C)[C@@H](O[C@H]2O[C@H](C(=O)O)[C@@H](O)[C@H](O)[C@H]2O[C@@H]2O[C@H](C(=O)O)[C@@H](O)[C@H](O)[C@H]2O)CC[C@]2(C)[C@H]3C(=O)C=C4[C@@H]5C[C@@](C)(C(=O)O)CC[C@]5(C)CC[C@@]4(C)[C@]3(C)CC[C@@H]12 [dipotassium glycyrrhizinate]
IC50 [3]: > 200 µM | IC50 [4]: > 200 µM | IC50 [1]: > 200 µM | IC50 [2]: > 200 µM

SMILES: Nc1nc2nc[nH]c2c(=O)[nH]1 [guanine]
IC50 Concentration IL-6 [1]: Not inhibited | IC50 Concentration TNF-α [2]: Not inhibited
